Source: patent US9085520B2, “Composition for treating diabetes and metabolic diseases and a preparation method thereof” (KAOHSIUNG MEDICAL UNIVERSITY, priority 2011, dated 2015)

Tested on: 3T3-L1 adipocytes
Assay: glucose consumption (remaining glucose) in culture medium of 3T3-L1 adipocytes
Format: cell-based
Conditions: 30 μg/ml; culture medium of 3T3-L1 adipocytes after 24 hours; means ± SD, N = 3; control 310 ± 4.0
Procedure: After precursor adipocytes 3T3-L1 were induced as the matured adipocytes, culture medium with glucose (concentration of 300 mg/dl) and drugs were added, and the concentration of the remaining glucose in the culture medium were measured after 24 hours.
Adipose tissues are major sites for postprandial glucose uptake. Therefore, in vitro anti-diabetic screening model based on measuring glucose consumption after 24 hours in culture medium of 3T3-L1 adipocytes was developed. […] Accordingly, 60 chalcone derivatives with and without substitutions on A-ring were examined in our developed model. […] Structure-activity relationship (SAR) analyses data are also determined.

| SMILES | remaining glucose concentration in culture medium after 24 hours [mg/dL] |
| --- | --- |
| COc1ccc(/C=C/C(=O)c2ccccc2)cc1 [Compound 7, (E)-3-(4-methoxyphenyl)-1-phenylprop-2-en-1-one] | 261 ± 3.2 |
| COc1cccc(/C=C/C(=O)c2ccccc2)c1 [Compound 8, (E)-3-(3-methoxyphenyl)-1-phenylprop-2-en-1-one] | 261 ± 7.2 |
| O=C(/C=C/c1cccc(OCc2ccccc2)c1)c1ccccc1O [Compound 11, (E)-3-(3-(benzyloxy)phenyl)-1-(2-hydroxyphenyl)prop-2-en-1-one] | 256 ± 13.1 |
| COc1cccc(/C=C/C(=O)c2ccccc2Br)c1 [Compound 13, (E)-1-(2-bromophenyl)-3-(3-methoxyphenyl)prop-2-en-1-one] | 249 ± 5.2 |
| COc1cccc(/C=C/C(=O)c2cccc(Br)c2)c1 [Compound 14, (E)-1-(3-bromophenyl)-3-(3-methoxyphenyl)prop-2-en-1-one] | 262 ± 2.2 |
| COc1cccc(/C=C/C(=O)c2ccc(Cl)cc2)c1 [Compound 15, (E)-1-(4-chlorophenyl)-3-(3-methoxyphenyl)prop-2-en-1-one] | 272 ± 22.4 |
| COc1cccc(/C=C/C(=O)c2ccc(Br)cc2)c1 [Compound 16, (E)-1-(4-bromophenyl)-3-(3-methoxyphenyl)prop-2-en-1-one] | 257 ± 10.0 |
| COc1ccc(/C=C/C(=O)c2cccc(Br)c2)cc1 [Compound 17, (E)-1-(3-bromophenyl)-3-(4-methoxyphenyl)prop-2-en-1-one] | 248 ± 8.0 |
| COc1ccc(/C=C/C(=O)c2ccc(Br)cc2)cc1 [Compound 18, (E)-1-(4-bromophenyl)-3-(4-methoxyphenyl)prop-2-en-1-one] | 261 ± 12.7 |
| O=C(/C=C/c1ccccc1)c1cc(Br)ccc1O [Compound 19, (E)-1-(5-bromo-2-hydroxyphenyl)-3-phenylprop-2-en-1-one] | 253 ± 7.8 |
| COc1ccc(/C=C/C(=O)c2cc(Br)ccc2O)cc1 [Compound 20, (E)-1-(5-bromo-2-hydroxyphenyl)-3-(4-methoxyphenyl)prop-2-en-1-one] | 254 ± 17.6 |
| COc1cccc(/C=C/C(=O)c2cc(Br)ccc2O)c1 [Compound 21, (E)-1-(5-bromo-2-hydroxyphenyl)-3-(3-methoxyphenyl)prop-2-en-1-one] | 260 ± 3.3 |
| O=C(/C=C/c1cccc(OCc2ccccc2)c1)c1cc(Br)ccc1O [Compound 22, (E)-3-(3-(benzyloxy)phenyl)-1-(5-bromo-2-hydroxyphenyl)prop-2-en-1-one] | 252 ± 0.1 |
| O=C(/C=C/c1ccc(OCc2ccccc2)cc1)c1cc(Br)ccc1O [Compound 23, (E)-3-(4-(benzyloxy)phenyl)-1-(5-bromo-2-hydroxyphenyl)prop-2-en-1-one] | 256 ± 1.3 |
| O=C(/C=C/c1ccc(O)cc1)c1ccccc1O [Compound 24, (2E)-1-(2-hydroxyphenyl)-3-(4-hydroxyphenyl)-2-propen-1-one] | 267 ± 3.4 |
| O=C(/C=C/c1ccc(OCc2ccccc2)cc1)c1ccccc1O [Compound 25, (E)-3-(4-(benzyloxy)phenyl)-1-(2-hydroxyphenyl)prop-2-en-1-one] | 260 ± 3.8 |
| COc1ccc(/C=C/C(=O)c2ccccc2F)cc1 [Compound 28, (E)-1-(2-fluorophenyl)-3-(4-methoxyphenyl)prop-2-en-1-one] | 259 ± 0.3 |

Same assay, conditions: FIG. 1; 30 μg/ml, medium glucose 300 mg/dl, remaining glucose after 24 hours

| SMILES | glucose absorption activity of adipocytes 3T3-L1 (anti-hyperglycemic ability) |
| --- | --- |
| COc1cccc(/C=C/C(=O)c2ccc(Cl)cc2)c1 [Compound 15, (E)-1-(4-chlorophenyl)-3-(3-methoxyphenyl)prop-2-en-1-one] | not significantly different |
| COc1cccc(/C=C/C(=O)c2ccc(Br)cc2)c1 [Compound 16, (E)-1-(4-bromophenyl)-3-(3-methoxyphenyl)prop-2-en-1-one] | not significantly different |
